{
  "source": "the supplement of paper PMC10307832",
  "experiment_in_all_cases": "relative viability (nuclei count vs DMSO), 5 days (fraction); higher = more cells survive",
  "key": {"[1]": {"compound": "CC(O)(CS(=O)(=O)c1ccc(F)cc1)C(=O)Nc1ccc(C#N)c(C(F)(F)F)c1 [Bicalutamide] + CC(=O)c1c(C)c2cnc(Nc3ccc(N4CCNCC4)cn3)nc2n(C2CCCC2)c1=O [Palbociclib] (partner 0.5 µM)", "method_in_brief": "(§1)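 Relative viability equals treated-well nuclei counts divided by vehicle-well nuclei counts. Counts came from 4× images of lung cancer cell lines grown in 1536-well plates for 5 days after pin-tool dosing on the day after seeding. Dosing used one drug alone or a fixed anchor-drug dose plus five library-drug doses (not always all listed) in √10 steps, and values are medians of duplicate plates.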"}, "[2]": {"compound": "CC(O)(CS(=O)(=O)c1ccc(F)cc1)C(=O)Nc1ccc(C#N)c(C(F)(F)F)c1 [Bicalutamide] + CC1(C)CCC(c2ccc(Cl)cc2)=C(CN2CCN(c3ccc(C(=O)NS(=O)(=O)c4ccc(N[C@H](CCN5CCOCC5)CSc5ccccc5)c(S(=O)(=O)C(F)(F)F)c4)cc3)CC2)C1 [Navitoclax] (partner 0.5 µM)", "method_in_brief": "as §1"}, "Bromopyruvate + Olaparib": {"compound": "C(C(=O)C(=O)O)Br [Bromopyruvate] + O=C(c1cc(Cc2n[nH]c(=O)c3ccccc23)ccc1F)N1CCN(C(=O)C2CC2)CC1 [Olaparib] (partner 8 µM)", "method_in_brief": "as §1"}, "Bicalutamide + Lapatinib": {"compound": "CC(O)(CS(=O)(=O)c1ccc(F)cc1)C(=O)Nc1ccc(C#N)c(C(F)(F)F)c1 [Bicalutamide] + CS(=O)(=O)CCNCc1ccc(-c2ccc3ncnc(Nc4ccc(OCc5cccc(F)c5)c(Cl)c4)c3c2)o1 [Lapatinib] (partner 2 µM)", "method_in_brief": "as §1"}},
  "data": [
    {"cell line": "UMC-11", "values": [
      {"measurement": "relative viability", "setting": "[1]; first compound 0.08 µM", "result": 0.34},
      {"measurement": "relative viability", "setting": "[1]; first compound 0.253 µM", "result": 0.367},
      {"measurement": "relative viability", "setting": "[1]; first compound 0.8 µM", "result": 0.319},
      {"measurement": "relative viability", "setting": "[1]; first compound 2.53 µM", "result": 0.347},
      {"measurement": "relative viability", "setting": "[2]; first compound 0.08 µM", "result": 0.328},
      {"measurement": "relative viability", "setting": "[2]; first compound 0.253 µM", "result": 0.25},
      {"measurement": "relative viability", "setting": "[2]; first compound 0.8 µM", "result": 0.281},
      {"measurement": "relative viability", "setting": "[2]; first compound 2.53 µM", "result": 0.279},
      {"measurement": "relative viability", "setting": "Bromopyruvate + Olaparib; first compound 1 µM", "result": 0.366},
      {"measurement": "relative viability", "setting": "Bromopyruvate + Olaparib; first compound 3.162 µM", "result": 0.356},
      {"measurement": "relative viability", "setting": "Bromopyruvate + Olaparib; first compound 10 µM", "result": 0.374},
      {"measurement": "relative viability", "setting": "Bromopyruvate + Olaparib; first compound 31.62 µM", "result": 0.35},
      {"measurement": "relative viability", "setting": "Bromopyruvate + Olaparib; first compound 100 µM", "result": 0.393},
      {"measurement": "relative viability", "setting": "Bicalutamide + Lapatinib; first compound 0.08 µM", "result": 0.951},
      {"measurement": "relative viability", "setting": "Bicalutamide + Lapatinib; first compound 0.253 µM", "result": 0.723},
      {"measurement": "relative viability", "setting": "Bicalutamide + Lapatinib; first compound 0.8 µM", "result": 1.12},
      {"measurement": "relative viability", "setting": "Bicalutamide + Lapatinib; first compound 2.53 µM", "result": 0.899}
    ]}
  ]
}
